Test results as given in BindingDB's records for doi:10.1021/jm00048a016 (National Cancer Institute-Frederick, 1994).

Target: Gastrin/cholecystokinin type B receptor (Cavia porcellus)
Assay: Tested for the 50% inhibition level against [125I]- gastrin binding to guinea pig gastric glands

| EC50 | SMILES |
| --- | --- |
| 0.08 µM | CSCC[C@H](NC(=O)[C@H](Cc1c[nH]c2ccccc12)NC(=O)CCNC(=O)CCC(=O)N(Cc1ccccc1)N=NCCCl)C(=O)N[C@@H](CC(=O)O)C(=O)N[C@@H](Cc1ccccc1)C(N)=O [CBS-5] |
| 0.13 µM | CSCC[C@H](NC(=O)[C@H](Cc1c[nH]c2ccccc12)NC(=O)CCC(=O)N(Cc1ccccc1)N=NCCCl)C(=O)N[C@@H](CC(=O)O)C(=O)N[C@@H](Cc1ccccc1)C(N)=O [CBS-4] |
